Laboratory results reported in PubChem BioAssay (NCI).
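Each compound was tested at five concentrations against cells in 96-well plates for 48 hours. GI50 is the concentration that inhibits growth by half. TGI denotes the concentration required for complete inhibition of growth.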

Key:
Test in all cases: inhibition of tumour cell growth, NCI panel, 48 h
CCRF-CEM leukemia = test system: CCRF-CEM leukemia
MDA-MB-435 = test system: MDA-MB-435
HL-60(TB) leukemia = test system: HL-60(TB) leukemia
NCI-H23 lung = test system: NCI-H23 lung
LOX IMVI melanoma = test system: LOX IMVI melanoma
HCT-15 colon = test system: HCT-15 colon
SF-539 CNS = test system: SF-539 CNS
NCI-H460 lung = test system: NCI-H460 lung
786-0 renal = test system: 786-0 renal
SK-OV-3 ovarian = test system: SK-OV-3 ovarian

Compound	GI50 (CCRF-CEM leukemia) [µM]	TGI (CCRF-CEM leukemia) [µM]	GI50 (MDA-MB-435) [µM]	TGI (MDA-MB-435) [µM]	GI50 (HL-60(TB) leukemia) [µM]	TGI (HL-60(TB) leukemia) [µM]	GI50 (NCI-H23 lung) [µM]	TGI (NCI-H23 lung) [µM]	GI50 (LOX IMVI melanoma) [µM]	TGI (LOX IMVI melanoma) [µM]	GI50 (HCT-15 colon) [µM]	TGI (HCT-15 colon) [µM]	GI50 (SF-539 CNS) [µM]	TGI (SF-539 CNS) [µM]	GI50 (NCI-H460 lung) [µM]	TGI (NCI-H460 lung) [µM]	GI50 (786-0 renal) [µM]	TGI (786-0 renal) [µM]	GI50 (SK-OV-3 ovarian) [µM]	TGI (SK-OV-3 ovarian) [µM]
CCCCCCCCN(CCCCCCCC)CC(O)c1cc(-c2ccccc2)nc2ccc(OC)cc12 (stereo not drawn)	26.1	> 100	32.1	> 100	18	52.2	43.4	> 100	12.6	34.7	23.2	> 100	22.3	64.8	> 100	> 100	> 100	> 100	> 100	> 100
O=C1/C=C/[C@@H](O)[C@@H]2C[C@@H](O)C[C@H]2/C=C/CCC[C@H](CCO)O1	0.362	> 100	0.254	> 100	0.315	1.16	0.227	2.3	0.157	0.377	0.35	> 100	0.469	> 100	0.382	> 100	0.0362	0.142	0.287	> 100
COc1cc2c(cc1OC)C(Cl)C(c1ccc(Br)cc1)=C2Cl (stereo not drawn)		> 100		17.4		> 67.3		23.8		24.4		23.6		26.1		25.8		16.7		45.9
O=C1c2ccccc2C(=O)N1CC#CCO		> 100				> 100		> 100				> 100		> 100		> 100		> 100		> 100
O=C(Nc1ccc(Br)cc1)C(=O)C(C(=O)c1ccc(Cl)c(Cl)c1)C1OC(=O)c2ccccc21 (stereo not drawn)		> 100				> 100		29.3		47		53.7				38.2		30.9		> 100
CC(C)N1CC2CC(CN(C(=O)c3ccc(Cl)cc3)C2)C1		> 100				> 100		> 100		> 100		> 100		> 100		> 100		> 100		> 100
C[C@]12CC[C@H]3[C@@H](CC[C@]4(O)C[C@@H](O)CC[C@]34C=O)[C@@]1(O)CC[C@@H]2C1=CC(=O)OC1		> 100		1.83		47.6		1.12		2.46		1.47		0.967		0.591		> 100		2.79
Cc1ccc(/C=C2\CCCCC2=O)cc1		88.8				48.3		> 100		> 100		> 100		> 100		> 100		> 100		> 100
Nc1ccc(C#Cc2ccccc2C#CCCCCO)cc1	13.2	28.1	19.7	36.6	23.4	44	18.2	35.1	16.2	29.7	15.3	28.7	17.6	33.9	21.8	45.4	13.8	27.5	18.1	34.7
Cc1cc(I)cc(CN(C)CCCN2CCC(C)CC2)c1O			11.6	25	12.5	31.6	15.4	33.7	15.5	31.4	12.1	26.7	14	27.5	12.5	25	13.4	26.2	15.9	31.1
CC(C)[C@@H](C(=O)O[C@@H]1/C=C/C(=O)O[C@@H](C)CCC/C=C/[C@@H]2C[C@H](O)C[C@H]21)N(C)C	7.84	35.1	7.43	41.4	13.8	36	23.3	91.8	17	39.9	16	32.3	22.5	67.4	24.7	> 76.3	9.9	52.3	23.8	> 96
COC(=O)C1=C(C)NC(=S)NC1c1ccc(N(CCCl)CCCl)cc1Cl (stereo not drawn)		> 32.7		37.4		> 100		> 62.1		> 100		> 66.5		> 100		> 100		> 100		> 100
Cc1cc(-c2ccccc2)nc(Nc2cc3ccccc3[nH]2)n1		> 100				> 100		> 100		> 100		> 100		> 100		> 100		> 100		> 100
CCC(=O)NC1=C(Cl)C(=O)C(NC(=O)CC)=C(Cl)C1=O	3.04	> 21.6	18.9	33.8	2.42	> 23.7	18.5	40.8	16.3	31.2	9.02	27.1	> 44.4	> 58.2	> 45.7	> 63.3	18.7	33.4	> 73.1	> 100
CCCCCCC(=O)NC1=C(N2CC2)C(=O)C(NC(=O)CCCCCC)=C(N2CC2)C1=O	4.32	> 100	1.56	3.11	3.17	> 100			3.03	> 100			2.37	> 100	0.677	> 100	4.25	> 100	13	> 100
O=[N+]([O-])c1ccc2c(c1)C(N1CCN(CCO)CC1)Cc1ccc(F)cc1S2 (stereo not drawn)		16.1				23.1		29				19		22.6		27.3		26.4		31
O=C(Nc1ccc(Br)c2ccccc12)c1ccc2ccccc2c1O		> 100				88.8		10.2				7.1		24.9		13.1		15.9		18.6
